Reference: the Biogen ADME set (Fang et al. 2023)
≈ marks a conversion by molar mass, not a printed value.

Details: for aqueous solubility: pH 6.8

Row | SMILES | aqueous solubility | intrinsic clearance, human liver microsomes | intrinsic clearance, rat liver microsomes | MDR1-MDCK efflux ratio
1 | Fc1ccc2oc(Cn3nnc(-c4ccsc4)n3)nc2c1 | 30.2 µg/mL (≈ 100 µM) | – | – | –
2 | CCCCCCCC/C(=C\CCCCCCCC(=O)O)[N+](=O)[O-] | 12.7 µg/mL (≈ 38.8 µM) | 42.9 mL/min/kg | 84.9 mL/min/kg | –
3 | O=C(CN1CCCC(c2nc3ccccc3o2)C1)Nc1ccc(OC(F)(F)F)cc1 (centres undefined) | 6.85 µg/mL (≈ 16.3 µM) | 134 mL/min/kg | 496 mL/min/kg | 0.983
4 | O=C(CC[C@@H]1CCCN2CCCC[C@H]12)NCc1ncc(Cl)cn1 | – | ≤ 4.74 mL/min/kg | 37.6 mL/min/kg | 33.8
5 | Cc1cc(-c2nncc3c(C(C)(C)C)c(OCc4ncnn4C)nn23)no1 | – | ≤ 4.74 mL/min/kg | 83.6 mL/min/kg | 8.04
6 | O=C(NO)c1cnc(NC2(c3cccc(F)c3)CCCCC2)nc1 | – | 14.4 mL/min/kg | 306 mL/min/kg | –
7 | Clc1cccc(Nc2ncnc3[nH]ncc23)c1Cl | 3.23 µg/mL (≈ 11.5 µM) | – | – | –
8 | CC1(C)[C@@H]2C[C@H]1[C@@]1(O)[C@@H](C2)Oc2c(ccc(O)c2C(=O)NCCNS(C)(=O)=O)[C@@H]1O | – | 29.3 mL/min/kg | 134 mL/min/kg | 91
9 | Cc1cnc(-c2nc(NCc3cccnc3)ncc2-c2cc(C)no2)cn1 | – | 17.1 mL/min/kg | 261 mL/min/kg | –
10 | Cc1ccc(-c2cc(NC(=O)CN3CCOCC3)on2)cc1 | 52.1 µg/mL (≈ 173 µM) | ≤ 4.74 mL/min/kg | 71 mL/min/kg | 0.561

Next, values leading:

Row | aqueous solubility | intrinsic clearance, human liver microsomes | intrinsic clearance, rat liver microsomes | MDR1-MDCK efflux ratio | SMILES
11 | 30.4 µg/mL (≈ 112 µM) | ≤ 4.74 mL/min/kg | ≤ 10.7 mL/min/kg | 7.94 | Cc1ccc(C(=O)NC[C@H]2Cn3ccnc3CO2)cc1
12 | – | ≤ 4.74 mL/min/kg | 184 mL/min/kg | 18.2 | CN(CCNC(=O)NC1CCOCC1)C1CCCC1
13 | – | 4.92 mL/min/kg | 49.6 mL/min/kg | – | Cn1c2cc(S(C)=O)sc2c2cnn(Cc3cccc(N)c3)c(=O)c21 (centres undefined)
14 | 44.7 µg/mL (≈ 140 µM) | 41.9 mL/min/kg | 300 mL/min/kg | 1.01 | O=C(CCc1ccc2c(c1)OCO2)Nc1cccc2cnccc12
15 | 11 µg/mL (≈ 26.6 µM) | 229 mL/min/kg | 1650 mL/min/kg | 1.03 | O=C(CN1CCCN(c2ccc(C(F)(F)F)cn2)CC1)Nc1ccccc1Cl
16 | 44.9 µg/mL (≈ 193 µM) | ≤ 4.74 mL/min/kg | ≤ 10.7 mL/min/kg | – | CC1(C(=O)O)CCN(Cc2ccccc2)CC1
17 | – | ≤ 4.74 mL/min/kg | 74.3 mL/min/kg | 0.972 | Cc1cccc(C)c1CNC1(CCO)CCOCC1
18 | 32.6 µg/mL (≈ 131 µM) | 54.7 mL/min/kg | 1900 mL/min/kg | 0.488 | Cc1cnn(C2CN(CC3(O)CCCCC3)C2)c1
19 | – | ≤ 4.74 mL/min/kg | 27.4 mL/min/kg | 0.396 | Cc1ccc(CN)c(-n2cc(Cl)cn2)n1
20 | 25.1 µg/mL (≈ 84.3 µM) | 5.81 mL/min/kg | 67.4 mL/min/kg | 0.985 | N#Cc1ccc(-c2csc(CCN3CCCC3=O)n2)cc1
21 | 41.8 µg/mL (≈ 160 µM) | ≤ 4.74 mL/min/kg | ≤ 10.7 mL/min/kg | 1.22 | O=C(NCc1nnc2c(O)nccn12)C1CCCC1
22 | 48.6 µg/mL (≈ 174 µM) | 15.4 mL/min/kg | 222 mL/min/kg | 2.51 | CN(Cc1ccncc1)Cc1cc2ccccc2nc1O
23 | – | 237 mL/min/kg | 3280 mL/min/kg | 3.15 | CCOc1ccnc(NCCCc2nc3cc(F)ccc3[nH]2)n1
24 | 31.9 µg/mL (≈ 133 µM) | ≤ 4.74 mL/min/kg | ≤ 10.7 mL/min/kg | – | O=C(O)c1cnn(-c2ccncc2)c1C(F)F
